system: not given; assay: not given; settings: not given

| Compound | melting point [°C] |
| --- | --- |
| COc1ccc(NC(=O)CNC(=O)COc2ccc(F)cc2)c(C)c1 [MM-6, 2-(4-Fluoro-phenoxy)-N-[(4-methoxy-2-methyl-phenylcarbamoyl)-methyl]-acetamide] | 169 to 170 |
| O=C(COc1ccc(F)cc1)NCC(=O)Nc1ccc(I)cc1 [MM-7, 2-(4-Fluoro-phenoxy)-N-[(4-iodo-phenylcarbamoyl)-methyl]-acetamide] | 190 to 191 |
| O=C(COc1ccc(Br)cc1)NCC(=O)Nc1ccc(F)cc1 [MM-8, 2-(4-Bromo-phenoxy)-N-[(4-fluoro-phenylcarbamoyl)-methyl]-acetamide] | 213 to 214 |
| O=C(COc1ccc(F)cc1)NCC(=O)Nc1ccc(F)cc1 [MM-9, 2-(4-Fluoro-phenoxy)-N-[(4-fluoro-phenylcarbamoyl)-methyl]-acetamide] | 202 to 203 |
| O=C(COc1ccc(F)cc1)NCC(=O)Nc1ccc(Br)cc1 [MM-10, N-[(4-Bromo-phenylcarbamoyl)-methyl]-2-(4-fluoro-phenoxy)-acetamide] | 192 to 193 |
| COc1ccc(NC(=O)CNC(=O)COc2ccc(Br)cc2)cc1 [MM-11, 2-(4-Bromo-phenoxy)-N-[(4-methoxy-phenylcarbamoyl)-methyl]acetamide] | 190 to 191 |
| COc1ccc(NC(=O)CNC(=O)COc2ccc(F)cc2)cc1 [MM-12, 2-(4-Fluoro-phenoxy)-N-[(4-methoxy-phenylcarbamoyl)-methyl]-acetamide] | 185 to 186 |
| O=C(COc1ccc(F)cc1)NCC(=O)NC1CCCCC1 [MM-14, N-Cyclohexylcarbamoylmethyl-2-(4-fluoro-phenoxy)-acetamide] | 184 to 185 |
| O=C(COc1ccc(Br)cc1)NCC(=O)Nc1c(F)cccc1F [MM-15, 2-(4-Bromo-phenoxy)-N-[(2,6-difluoro-phenylcarbamoyl)-methyl]-acetamide] | 173 to 174 |
| O=C(CNC(=O)COc1ccc(Br)cc1)NCc1ccccc1 [MM-16, N-(Benzylcarbamoyl-methyl)-2-(4-bromo-phenoxy)-acetamide] | 195 to 196 |
| O=C(CNC(=O)COc1ccc(F)cc1)NCc1ccccc1 [MM-17, N-(Benzylcarbamoyl-methyl)-2-(4-fluoro-phenoxy)-acetamide] | 165 to 166 |
| COc1ccc(OCC(=O)NCC(=O)Nc2ccc(OC)cc2C)cc1 [MM-18, N-[(4-Methoxy-2-methyl-phenylcarbamoyl)-methyl]-2-(4-methoxy-phenoxy)-acetamide] | 143 to 144 |
| COc1cccc(OCC(=O)NCC(=O)Nc2ccc(OC)cc2C)c1 [MM-19, N-[(4-Methoxy-2-methyl-phenylcarbamoyl)-methyl]-2-(3-methoxy-phenoxy)-acetamide] | 115 to 116 |
| O=C(COc1ccc(Cl)cc1)NCC(=O)Nc1c(F)cccc1F [MM-20, 2-(4-Chloro-phenoxy)-N-[(2,6-difluoro-phenylcarbamoyl)-methyl]acetamide] | 184 to 185 |
| O=C(COc1ccc(Oc2ccccc2)cc1)NCC(=O)Nc1c(F)cccc1F [MM-21, N-[(2,6-Difluoro-phenylcarbamoyl)-methyl]-2-(4-phenoxy-phenoxy)-acetamide] | 164 to 165 |
| Cc1cccc(OCC(=O)NCC(=O)Nc2c(F)cccc2F)c1 [MM-22, N-[(2,6-Difluoro-phenylcarbamoyl)-methyl]-2-m-tolyloxy-acetamide] | 161 to 162 |
| COc1ccc(OCC(=O)NCC(=O)Nc2c(F)cccc2F)cc1 [MM-23, N-[(2,6-Difluoro-phenylcarbamoyl)-methyl]-2-(4-methoxy-phenoxy)-acetamide] | 164 to 165 |
| O=C(COc1ccc(F)cc1)NCC(=O)Nc1c(F)cccc1F [MM-24, N-[(2,6-Difluoro-phenylcarbamoyl)-methyl]-2-(4-fluoro-phenoxy)-acetamide] | 194 to 195 |
| O=C(COc1ccc(Br)cc1)NCC(=S)Nc1c(F)cccc1F [MM-25, 2-(4-Bromo-phenoxy)-N-[(2,6-difluoro-phenylthiocarbamoyl)-methyl]-acetamide] | 174 to 175 |
| COc1ccc(OCC(=O)NCC(=S)Nc2c(F)cccc2F)cc1 [MM-26, N-[(2,6-Difluoro-phenylthiocarbamoyl)-methyl]-2-(4-methoxy-phenoxy)-acetamide] | 160 to 161 |
| Cc1ccccc1CNC(=O)CNC(=O)COc1ccc(Br)cc1 [MM-27, 2-(4-Bromo-phenoxy)-N-[(2-methyl-benzylcarbamoyl)-methyl]-acetamide] | 174 to 175 |
| O=C(CNC(=O)COc1ccc(Br)cc1)NCc1ccc(Br)cc1 [MM-28, N-[(4-Bromo-benzylcarbamoyl)-methyl]-2-(4-bromo-phenoxy)-acetamide] | 208 to 209 |
| O=C(CNC(=O)COc1ccc(Br)cc1)NCc1ccc(Br)cc1F [MM-29, N-[(4-Bromo-2-fluoro-benzylcarbamoyl)-methyl]-2-(4-bromo-phenoxy)-acetamide] | 179 to 180 |
| COc1ccc(OCC(=O)NCC(=O)Nc2cccc(Br)c2)cc1 [MM-31, N-[(3-Bromo-phenylcarbamoyl)-methyl]-2-(4-methoxy-phenoxy)-acetamide] | 174 to 175 |
| O=C(COc1ccc(Br)cc1)NCC(=O)Nc1cccc(Cl)c1 [MM-32, 2-(4-Bromo-phenoxy)-N-[(3-chloro-phenylcarbamoyl)-methyl]-acetamide] | 205 to 206 |
| O=C(COc1ccc(Br)cc1)NCC(=O)Nc1cccc([N+](=O)[O-])c1 [MM-33, 2-(4-Bromo-phenoxy)-N-[(3-nitro-phenylcarbamoyl)-methyl]-acetamide] | 197 to 198 |
| O=C(COc1ccc(OCc2ccccc2)cc1)NCC(=O)Nc1c(F)cccc1F [MM-34, 2-(4-Benzyloxy-phenoxy)-N-[(2,6-difluoro-phenylcarbamoyl)-methyl]-acetamide] | 145 to 146 |
| O=C(COc1ccc(O)cc1)NCC(=O)Nc1c(F)cccc1F [MM-35, N-[(2,6-difluorophenylcarbamoyl)methyl]-2-(4-hydroxyphenoxy)acetamide] | 197 to 198 |
| Cc1cccc(OCC(=O)NCC(=O)Nc2ccc(I)cc2)c1 [MM-36, N-[(4-Iodo-phenylcarbamoyl)-methyl]-2-m-tolyloxy-acetamide] | 192 to 193 |
| Cc1cccc(OCC(=O)NCC(=O)Nc2ccc(O)cc2)c1 [MM-37, N-[(4-hydroxyphenylcarbamoyl)methyl]-2-m-tolyloxyacetamide] | 186 to 187 |

target: T1, Recombinant SR (serine racemase) (Homo sapiens, UniProt Q9GZT4); assay: Serine racemase (SR) enzyme activity measurement: L-serine racemization reaction, D-serine quantified via Dsd1/DNP colorimetry; type: biochemical; settings: compound 0.3 mM (footnote ‡); value in parentheses = malonic acid (control) in the same run
T1 construct: made in house; host or cells: Escherichia coli
T1 sequence (Q9GZT4 1-340): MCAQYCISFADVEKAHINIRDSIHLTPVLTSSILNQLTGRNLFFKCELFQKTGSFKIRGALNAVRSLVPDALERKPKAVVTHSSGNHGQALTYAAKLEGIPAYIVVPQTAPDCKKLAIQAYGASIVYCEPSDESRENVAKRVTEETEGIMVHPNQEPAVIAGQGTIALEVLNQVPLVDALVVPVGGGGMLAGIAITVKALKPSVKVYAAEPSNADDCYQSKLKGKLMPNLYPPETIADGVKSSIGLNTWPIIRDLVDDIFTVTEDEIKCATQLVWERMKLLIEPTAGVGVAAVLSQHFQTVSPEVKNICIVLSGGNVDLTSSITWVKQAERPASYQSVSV
Method: (1) L-Serine Racemization Reaction
(2) Quantitative Determination of D-serine
D-serine was quantitatively determined in accordance with the method proposed by Ito et al. (Analytical Biochemistry, 371: 167-172, 2007).
A solution including 25 μL of 100 mM HEPES (pH: 8.0), 20 μM PLP, and 2 μg of recombinant D-serine dehydratase 1 (Dsd1) was added to 25 μL of the reaction mixture (see (1)), and the mixture was reacted at 30° C. for 30 minutes.
In order to measure pyruvic acid produced from D-serine by Dsd1 using a colorimetric reaction, 50 μL of 0.05% DNP/2M HCl was added to 50 μL of the reaction solution, and the mixture was reacted at 30° C. for 5 minutes. After the addition of 100 μL of ethanol and 125 μL of 10 M NaOH, the mixture was sufficiently mixed, and reacted at room temperature for 10 minutes, and the absorbance at a wavelength of 515 nm was measured using a spectrophotometer.

| Compound | % human (0. 3 mM) [%] |
| --- | --- |
| O=C(Nc1ccc(Cl)c(Cl)c1)Nc1ccccc1NS(=O)(=O)c1ccc(Br)cc1 [ED-27, 4-Bromo-N-{2-[3-(3,4-dichloro-phenyl)-ureido]-phenyl}-benzenesulfonamide] | 48 |
| COc1ccc(S(=O)(=O)Nc2ccccc2NC(=O)Nc2ccc(Cl)c(Cl)c2)cc1 [ED-31, N-{2-[3-(3,4-Dichloro-phenyl)-ureido]-phenyl}-4-methoxy-benzenesulfonamide] | 58 |
| O=C(Nc1ccc(Cl)cc1Cl)Nc1ccccc1NS(=O)(=O)c1ccc(Cl)cc1 [ED-36, 4-Chloro-N-{2-[3-(2,4-dichloro-phenyl)-ureido]-phenyl}-benzenesulfonamide] | 46 |
| Cc1ccc(/C=C/S(=O)(=O)Nc2ccccc2NC(=O)Nc2ccc(Cl)c(Cl)c2)cc1 [ED-37, 2-p-Tolyl-ethenesulfonic acid {2-[3-(3,4-dichloro-phenyl)-ureido]phenyl}-amide] | 48 |
| O=C(O)CC(=O)O [malonic acid, reference compound] | 51 |
